Measurements: US11465998B2, “Therapeutic compounds and methods of use thereof” (Regents of the University of Minnesota, priority 2019, dated 2022)
“Also recorded” adds a separate entry of the source. Where two headings read alike, the source gives them in different places.

Legend:
Assay type in all cases: cell-based
human NOD2 = target: T1, human NOD2 (Homo sapiens, UniProt Q9HC29); assay: human NOD2 specific reporter gene assay (NF-κB induction)
T1 construct: host or cells: HEK293
Method: (§1) Example 5: High-throughput screens in porcine blood: Curated compound collections were obtained from the Institute for Therapeutics Discovery & Development at the University of Minnesota. Compound transfers from source (80 nL of 10 mM stocks) to assay plates were performed using an Echo 550 acoustic liquid handler (Labcyte, Sunnyvale, Calif.). For most libraries, a target final concentration of 10 μM of compound (in a final volume of 80 μL for the assay described below) was achieved. Compound plates were hermetically sealed and stored at −80° C. until used. Fresh, heparin-anticoagulated porcine blood from healthy animals were obtained under USDA supervision from Midwest Research Swine, LLC (Glencoe, Minn.). 80 μL of hematocrit-enriched porcine blood (low-speed centrifugation, followed by resuspension in DMEM supplemented with 10% fetal bovine serum) was added to compound plates and incubated for 15 h. The following day, the plates were briefly centrifuged (100 g, 10 min), and supernatants were transferred using an automated ViaFlow 384 transfer device (Integra Biosciences Corp., Hudson, N.H.) to assay plates containing of 10^6 cells/mL of each of the following NF-κB/secreted alkaline phosphatase reporter cells suspended in HEK-Blue Detection Media: human IFN-α/β, human IFN-γ, human TNF-α/IL-1β (InvivoGen, San Diego, Calif.). NF-κB translocation was assayed spectrophotometrically using an alkaline phosphatase-specific chromogen (present in HEK-detection medium as supplied by InvivoGen) at 620 nm using a SpectraMax M4 multimode microplate reader (Molecular Devices, Sunnyvale, Calif.). Z′ factors were computed for each TLR/NOD-specific signals. Hits were defined as signals >4σ (in-plate standard deviations for test compounds above negative control means), were deconvoluted in full dose-response assays in human TLR-2/-3/-4/-5/-7/-8/-9 and NOD-1/NOD-2-specific reporter cells in liquid handler-assisted assay formats as described previously. Example 6: Murine knockout cell-lines: The following reagents were obtained through BEI Resources, NIAID, NIH: the microglial cell line derived from MAL/MyD88 double knockout Mice (NR-9904), and the macrophage cell line derived from TRIF/TRAM knockout mice (NR-9568). Example 7: Human NOD1/2-specific reporter gene assays (NF-κB induction), and TLR-2/-3/-4/-5/-7/-8/-9/STING/ISG counter-screens: The induction of NF-κB was quantified using human TLR-2/-3/-4/-5/-7/-8/-9/NOD-1/NOD-2/STING/ISG-specific, rapid-throughput, liquid handler-assisted reporter gene assays as previously described by us (Wu, W. et al. J. Med. Chem. 2010, 53, 3198-3213; Shukla, N. M. et al. J. Med. Chem. 2010, 53, 4450-4465; Agnihotri, G. et al. J. Med. Chem. 2011, 54, 1490-1510 and Ukani, R. et al. Bioorg. Med. Chem. Lett. 2012, 22, 293-295). HEK293 cells stably co-transfected with the appropriate hTLR and secreted alkaline phosphatase (sAP) were maintained in HEK-Blue™ Selection medium. Stable expression of secreted alkaline phosphatase (sAP) under control of NF-κB/AP-1/IRF promoters is inducible by appropriate innate immune stimuli, and extracellular sAP in the supernatant is proportional to NF-κB/IRF induction. Reporter cells were incubated at a density of ˜10^5 cells/ml in a volume of 80 μl/well, in 384-well, flat-bottomed, cell culture-treated microtiter plates in the presence of graded concentrations of stimuli. sAP was assayed spectrophotometrically using an alkaline phosphatase-specific chromogen (present in HEK-detection medium as supplied by InvivoGen) at 620 nm. Example 8: Multiplexed immunoassays for human cytokines: Fresh human peripheral blood mononuclear cells (hPBMC) were isolated from human blood obtained by venipuncture in Cell Preparation Tubes (CPT, Beckton-Dickinson) with informed consent and as per guidelines approved by the University of Minnesota Human Subjects Experimentation Committee. Aliquots of PBMCs or THP-1 cells (10^5 cells in 100 μL/well) were stimulated for 16 h with graded concentrations of test compounds. […]

[1] = tested on: human peripheral blood mononuclear cells (PBMCs); assay: Multiplexed immunoassays for human cytokines in PBMCs
Method: as §1, with “293-295).” for “293-295). HEK293 cells stably co-transfected with the appropriate hTLR and secreted alkaline phosphatase (sAP) were maintained in HEK-Blue™ Selection medium. Stable expression of secreted alkaline phosphatase (sAP) under control of NF-κB/AP-1/IRF promoters is inducible by appropriate innate immune stimuli, and extracellular sAP in the supernatant is proportional to NF-κB/IRF induction. Reporter cells were incubated at a density of ˜10^5 cells/ml in a volume of 80 μl/well, in 384-well, flat-bottomed, cell culture-treated microtiter plates in the presence of graded concentrations of stimuli. sAP was assayed spectrophotometrically using an alkaline phosphatase-specific chromogen (present in HEK-detection medium as supplied by InvivoGen) at 620 nm. Example 8: Multiplexed immunoassays for human cytokines: Fresh human peripheral blood mononuclear cells (hPBMC) were isolated from human blood obtained by venipuncture in Cell Preparation Tubes (CPT, Beckton-Dickinson) with informed consent and as per guidelines approved by the University of Minnesota Human Subjects Experimentation Committee. Aliquots of PBMCs or THP-1 cells (10^5 cells in 100 μL/well) were stimulated for 16 h with graded concentrations of test compounds.”

human whole blood = assay: Cytokine/chemokine induction in human whole blood
[2] = human NOD2 reporter gene assay, read-out: EC50 values, human NOD2 agonistic potency
[3] = human NOD2 specific reporter gene assay, arithmetic mean of quadruplicate samples, NA* indicates inactive under the tested conditions, read-out: hNOD2 Agonistic Activity (μM), EC50

T1 sequence (Q9HC29 whole entry): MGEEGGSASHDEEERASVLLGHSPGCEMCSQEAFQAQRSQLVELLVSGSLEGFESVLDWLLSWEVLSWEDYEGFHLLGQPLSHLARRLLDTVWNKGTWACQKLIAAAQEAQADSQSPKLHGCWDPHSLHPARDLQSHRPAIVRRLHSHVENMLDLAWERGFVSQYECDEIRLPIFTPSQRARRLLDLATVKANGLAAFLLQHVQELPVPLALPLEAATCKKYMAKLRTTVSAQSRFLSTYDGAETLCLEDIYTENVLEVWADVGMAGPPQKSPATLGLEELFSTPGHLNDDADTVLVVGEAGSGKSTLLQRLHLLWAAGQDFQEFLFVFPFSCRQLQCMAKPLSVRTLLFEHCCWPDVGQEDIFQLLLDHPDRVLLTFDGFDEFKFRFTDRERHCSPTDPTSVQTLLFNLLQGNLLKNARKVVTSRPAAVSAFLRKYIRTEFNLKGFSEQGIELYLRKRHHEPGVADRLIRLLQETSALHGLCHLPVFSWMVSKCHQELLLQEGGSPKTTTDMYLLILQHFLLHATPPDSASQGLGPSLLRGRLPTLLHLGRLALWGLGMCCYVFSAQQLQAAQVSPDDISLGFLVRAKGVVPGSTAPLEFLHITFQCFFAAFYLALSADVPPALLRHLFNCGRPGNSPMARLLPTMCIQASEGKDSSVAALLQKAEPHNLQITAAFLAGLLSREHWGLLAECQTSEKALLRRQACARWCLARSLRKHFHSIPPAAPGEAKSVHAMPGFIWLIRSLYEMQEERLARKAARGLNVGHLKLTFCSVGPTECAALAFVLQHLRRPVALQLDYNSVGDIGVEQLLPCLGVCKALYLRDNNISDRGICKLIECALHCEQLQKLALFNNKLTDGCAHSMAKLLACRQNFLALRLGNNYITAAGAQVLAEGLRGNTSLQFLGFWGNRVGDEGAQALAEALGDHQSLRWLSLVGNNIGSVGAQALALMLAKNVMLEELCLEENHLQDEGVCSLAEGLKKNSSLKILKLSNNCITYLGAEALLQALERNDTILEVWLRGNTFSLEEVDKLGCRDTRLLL

## CCCCCCc1nc2ccccc2n1-c1csc(C(N)=O)c1 [Compound 7f, 4-(2-Hexyl-1H-benzo[d]imidazol-1-yl)thiophene-2-carboxamide]
Human NOD2; [2]
  EC50: 0.66 µM
Human NOD2; [3]
  EC50: 0.664 µM
[1]
  induction of chemokines and cytokines: None of the small molecules (including 1, as well as the optimized, equipotent analogues 7e and 7f) showed any activity; also recorded: essentially identical to that of 7e
Human whole blood
  induction of cytokines and chemokines: None of the small molecules (including 1, as well as the optimized, equipotent analogues 7e and 7f) showed any activity

## CCCCCc1nc2ccccc2n1-c1csc(C(N)=O)c1 [Compound 7e, 4-(2-Pentyl-1H-benzo[d]imidazol-1-yl)thiophene-2-carboxamide]
Human NOD2; [2]
  EC50: 0.68 µM
Human NOD2; [3]
  EC50: 0.684 µM
[1]
  induction of chemokines and cytokines: None of the small molecules (including 1, as well as the optimized, equipotent analogues 7e and 7f) showed any activity; also recorded: absence of induction of chemokines and cytokines
Human whole blood
  induction of cytokines and chemokines: None of the small molecules (including 1, as well as the optimized, equipotent analogues 7e and 7f) showed any activity
